Columns and labels:
[1] = tested on: phospho-Src; assay: phospho-Src levels in A549 cells (Western blotting); format: cell-based, human; conditions: 10 μM, 4 hours
Method: (§1) Western blotting. Treated cell samples were lysed in 30 mM HEPES, pH 7.5, 10 mM NaCl, 5 mM MgCl2, 25 mM NaF, 1 mM EGTA, 1% Triton X-100, 10% glycerol, 2 mM sodium orthovanadate, 10 μg/ml aprotinin, 10μ/ml soybean trypsin inhibitor, 25 μg/ml leupeptin, 2 mM PMSF, and 6.4 mg/ml p-nitrophenylphosphate. Phospho-STAT3, phospho-AKT, phospho-Src, and phospho-p42/p44 MAPK antibodies were obtained from Cell Signaling Technologies (Cambridge, Mass., USA). Phospho-JNK and whole STAT3 antibodies were purchased from Santa Cruz Biotechnology (Santa Cruz, Calif., USA); phospho-JAK2 antibody came from Upstate Biotechnology (Lake Placid, N.Y., USA). Membranes were blocked in either 5% milk in phosphate-buffered saline (PBS), pH 7.4, containing 0.1% Tween-20 (PBS-T) or 1% BSA in tris-buffered saline (TBS), pH 7.5, containing 0.1% Tween-20 (TBS-T). Phospho-specific antibodies (excepting P-MAPK and P-JNK) were incubated in 1% BSA in TBS-T while all other antibodies were diluted in 5% milk in PBS-T for either 2 h at room temperature or overnight at 4° C. HRP-conjugated secondary antibodies (Jackson ImmunoResearch, West Grove, Pa., USA) were diluted in 5% milk in either PBS-T or TBS-T at 1:1000 dilution for 1 h at room temperature. […]
(§2) It was next determined whether withacnistin and the Cuc analogs are selective for the JAK2/STAT3 pathway over other signal transduction pathways. […]

[2] = tested on: A549 cells; assay: TUNEL apoptosis assay, A549; format: cell-based, human; conditions: for apoptosis (TUNEL): 10 μM, 24 h
Method: (§3) In vitro cellular proliferation and TUNEL assays. Subconfluent A549, MDA-MB-435, MDA-MB-453, MDAMB-468, v-Src transformed NIH 3T3 (v-Src/3T3), H-Ras transformed NIH 3T3 (H-Ras/3T3), and vector NIH 3T3 cells were grown in the presence of 10 μM cucurbitacin A, cucurbitacin I, withacnistin mixture, or DMSO vehicle control. After 24 hours, cells were harvested by trypsinization and counted via trypan blue exclusion assay to determine cellular viability. In all, 75,000-150,000 cells (depending on cell line) were then spun onto glass slides using a Cytospin 3 centrifuge (Thermo Shandon Inc., Pittsburgh, Pa., USA). After fixing cells to the slides with 4% paraformaldehyde in PBS, pH 7.5, for 1 h at room temperature, cells were labeled for apoptotic DNA strand breaks by TUNEL reaction using an in situ cell death detection kit (Roche Applied Science, Indianapolis, Ind., USA) according to the manufacturer's instructions, then mounted in Vectashield mounting medium (Vector Laboratories, Burlingame, Calif., USA) containing 4′,6-diamidino-2-phenylindole (DAPI) to counterstain DNA. Fluorescein-labeled DNA strand breaks (TUNEL-positive cells) were then visualized using a fluorescent microscope (Leica Microsystems Inc., Bannockburn, Ill., USA) and pictures taken with a digital camera (Diagnostic Instruments, Inc., Sterling Heights, Mich., USA). TUNELpositive nuclei were counted and compared to DAPI-stained nuclei to determine the percent induction of apoptosis by the different cucurbitacin compounds. Statistical significance between control and treated tumors were evaluated by using Student's t-test.
The next objective was to determine whether the ability of the cucurbitacins and withacnistin to induce apoptosis is dependent on suppression of PJAK2 and/or P-STAT3 levels. To this end, A549 cells were treated with vehicle control, or cucurbitacins (10 μM), or the withacnistin mixture (10 μM) for 24 h, harvested the cells, and determined tumor cell death (trypan blue exclusion) and apoptosis (TUNEL) as described under Materials and methods. […]

[3] = tested on: phospho-JNK; assay: phospho-JNK levels in A549 cells (Western blotting); format: cell-based, human; conditions: 10 μM, 4 hours
Method: as §1, §2

[4] = tested on: A549 cells; assay: Trypan blue exclusion assay (tumor cell death); format: cell-based, human; conditions: 10 μM, 24 h
Method: In vitro cellular proliferation and TUNEL assays. Subconfluent A549, MDA-MB-435, MDA-MB-453, MDAMB-468, v-Src transformed NIH 3T3 (v-Src/3T3), H-Ras transformed NIH 3T3 (H-Ras/3T3), and vector NIH 3T3 cells were grown in the presence of 10 μM cucurbitacin A, cucurbitacin I, withacnistin mixture, or DMSO vehicle control. After 24 hours, cells were harvested by trypsinization and counted via trypan blue exclusion assay to determine cellular viability. In all, 75,000-150,000 cells (depending on cell line) were then spun onto glass slides using a Cytospin 3 centrifuge (Thermo Shandon Inc., Pittsburgh, Pa., USA). […] TUNELpositive nuclei were counted and compared to DAPI-stained nuclei to determine the percent induction of apoptosis by the different cucurbitacin compounds. Statistical significance between control and treated tumors were evaluated by using Student's t-test.
The next objective was to determine whether the ability of the cucurbitacins and withacnistin to induce apoptosis is dependent on suppression of PJAK2 and/or P-STAT3 levels. To this end, A549 cells were treated with vehicle control, or cucurbitacins (10 μM), or the withacnistin mixture (10 μM) for 24 h, harvested the cells, and determined tumor cell death (trypan blue exclusion) and apoptosis (TUNEL) as described under Materials and methods.

[5] = tested on: phospho-Erk1/2; assay: phospho-Erk1/2 levels in A549 cells (Western blotting); format: cell-based, human; conditions: 10 μM
Method: as §1, §2

[6] = tested on: MDA-MB-435 cells; assay: TUNEL apoptosis assay, MDA-MB-435; format: cell-based, human; conditions: 10 μM withacnistin mixture, 24 hours
Method: as §3, with “Fluorescein-labeled DNA strand breaks (TUNEL-positive cells) were then visualized using a fluorescent microscope (Leica Microsystems Inc., Bannockburn, Ill., USA) and pictures taken with a digital camera (Diagnostic Instruments, Inc., Sterling Heights, Mich., USA).” left out, “t-test. […]” for “t-test.”

[7] = tested on: v-Src/3T3 cells; assay: TUNEL apoptosis assay, v-Src/3T3; format: cell-based, murine; conditions: 10 μM withacnistin mixture, 24 hours
Method: as §3, with “Fluorescein-labeled DNA strand breaks (TUNEL-positive cells) were then visualized using a fluorescent microscope (Leica Microsystems Inc., Bannockburn, Ill., USA) and pictures taken with a digital camera (Diagnostic Instruments, Inc., Sterling Heights, Mich., USA).” left out, “t-test. […]” for “t-test.”

[8] = tested on: vector/3T3 cells; assay: TUNEL apoptosis assay, vector NIH 3T3; format: cell-based, murine; conditions: 10 μM withacnistin mixture, 24 hours
Method: as §3, with “Fluorescein-labeled DNA strand breaks (TUNEL-positive cells) were then visualized using a fluorescent microscope (Leica Microsystems Inc., Bannockburn, Ill., USA) and pictures taken with a digital camera (Diagnostic Instruments, Inc., Sterling Heights, Mich., USA).” left out, “t-test. […]” for “t-test.”

[9] = target: Src kinase (Homo sapiens, UniProt P12931); assay: Src kinase inhibition in vitro; format: biochemical; conditions: data not shown
Src kinase, sequence (P12931 whole entry): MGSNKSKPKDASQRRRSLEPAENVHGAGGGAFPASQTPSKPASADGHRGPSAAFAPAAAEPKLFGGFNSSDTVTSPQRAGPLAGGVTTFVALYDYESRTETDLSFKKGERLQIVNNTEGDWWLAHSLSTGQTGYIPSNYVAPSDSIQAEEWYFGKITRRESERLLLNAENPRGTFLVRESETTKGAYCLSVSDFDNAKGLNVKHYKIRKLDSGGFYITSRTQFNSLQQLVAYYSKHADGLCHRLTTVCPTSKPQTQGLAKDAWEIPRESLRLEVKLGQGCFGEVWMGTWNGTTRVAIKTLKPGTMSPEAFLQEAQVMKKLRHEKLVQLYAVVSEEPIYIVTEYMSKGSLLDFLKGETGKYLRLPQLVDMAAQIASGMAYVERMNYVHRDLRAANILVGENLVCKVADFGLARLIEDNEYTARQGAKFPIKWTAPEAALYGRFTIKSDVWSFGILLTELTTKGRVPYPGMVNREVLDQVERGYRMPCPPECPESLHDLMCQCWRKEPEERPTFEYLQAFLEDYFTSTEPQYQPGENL
Description: The actual biochemical targets for cucurbitacins are not known. […] Possible tyrosine kinases that could be targets are the Src family of kinases. Src kinase itself was not inhibited in vitro by Cuc I (Blaskovich, M. A. et al. Cancer Res., 2003, 63:1270-1279) and withacnistin (data not shown).

[10] = tested on: SOCS3; assay: SOCS3 levels in cancer cell lines; format: cell-based, human; conditions: A549 cells
Method: Activation of STAT3 occurs through its tyrosine phosphorylation. Inactivation of STAT3 can occur through several mechanisms including dephosphorylation by phosphotyrosine protein phosphatases as well as blocking STAT3 activation by SOCS3, which binds and prevents kinases from activating STAT3. To determine whether Wit also affects negative regulators of STAT3, its effects on SOCS3 were determined. To this end, A549 cells were first treated with Wit for various periods of time and its effects on both P-STAT3 and SOCS3 were determined. […] However, by 24 hours, Wit suppressed both P-STAT3 and total STAT3 levels (data not shown). […] It is important to note that WM had little effect on […] protein levels (FIGS. 11A and 11C).

SMILES | phosphotyrosine levels of Src [1] | apoptosis (TUNEL) [2] [%] | phosphotyrosine levels of JNK1 [3] | tumor cell death (trypan blue exclusion) [4] [%] | levels of phosphorylated Erk1/2 [5] | increase of percentage of apoptotic cells compared to vehicle control [6] [fold] | apoptosis (TUNEL-positive cells) [7] [%] | fold increase of apoptosis over control [7] [fold] | apoptosis (TUNEL-positive cells) [8] [%] | fold increase of apoptosis over control [8] [fold] | increase of percentage of apoptotic tumor cells compared to vehicle-treated control ([2]; 10 μM withacnistin mixture, 24 hours) [fold] | inhibition of Src kinase in vitro [9] | levels of SOCS3 [10] | onset of SOCS3 induction [10]
CC(=O)OC(C)(C)/C=C/C(=O)[C@](C)(O)[C@H]1[C@H](O)C[C@@]2(C)[C@@H]3CC=C4[C@@H](C[C@H](O)C(=O)C4(C)C)[C@]3(CO)C(=O)C[C@]12C [Cuc A, cucurbitacin A] | little inhibitory activity | 5 | little inhibitory activity | 11 | – | – | – | – | – | – | – | – | – | –
CC(=O)OC[C@]12CC[C@H]3[C@@H](C[C@H]4O[C@]45[C@@H](O)C=CC(=O)[C@]35C)[C@@H]1CC[C@@H]2[C@H](C)[C@H]1CC(C)=C(C)C(=O)O1 [withacnistin] | – | 28 | – | 60 | significantly increased | 25.9 | 39.2±7.3 | 50.2 | 7.3±3.9 | 4.2 | 27.4 | not inhibited | induced | detectable only after two hours

Reference: patent publication US20070191490A1, “Withacnistin compounds for treatment of cancer” (priority 2006, published 2007)
